{"source": "patent US20240342148A1", "about": "“METHODS OF TREATING FACIOSCAPULOHUMERAL MUSCULAR DYSTROPHY WITH LOSMAPIMOD” (Fulcrum Therapeutics, Inc., priority 2021, published 2024)", "key": {"[1]": {"assay": "Plasma losmapimod concentrations (PK), Phase 2b RCT", "type": "in vivo, human", "conditions": "15 mg orally BID", "experimental": "Blood samples for PK assessment (plasma losmapimod concentrations) were collected at D1, Wk4, Wk16, and Wk36 at the following time points: immediately pre-dose and 4 hours (±30 minutes) after administration of the study dose (approximate Cmax). PK samples were also taken, when feasible, after dosing during the Wk12, Wk24, and Wk48 visits, preferably ≥1 hour after dosing.\n(§1) Plasma and muscle losmapimod concentrations were measured by 2 validated bioanalytical high-performance liquid chromatography methods by PPD, USA (PPD 2019)."}, "[2]": {"system": "subjects with FSHD", "assay": "Reachable workspace, Open Label Study, exploratory annualized analysis", "type": "in vivo, human", "conditions": "with and without weights", "description": "In the Open Label Study, reachable workspace (RWS) with and without weights has also been evaluated. FIG. 27 provides exploratory annualized percentage changes of RWS from baseline of patients participating in the study."}, "[3]": {"assay": "Muscle losmapimod concentrations in needle biopsies", "type": "in vivo", "conditions": "human, po, 15 mg BID, 15 mg orally BID", "experimental": "Muscle needle biopsies were performed using the Bergstrom needle or fine needle at D1 and Wk16, or Wk36 if the muscle biopsy could not be performed at Wk16. The choice of the muscle(s) to be biopsied was determined by the investigator, informed by MRI taken during screening. Only those STIR+ muscles with 10%≤MFF≤40% were eligible for biopsy. […] The bilateral vastus lateralis, vastus medialis, lateral gastrocnemius, medial gastrocnemius, and tibialis anterior were evaluated for eligibility by MRI using a central reader. The Wk16 or Wk36 muscle needle biopsies were performed in the same approximate location as the pretreatment (D1) muscle biopsy. At baseline, MRI fiducials were placed in order to identify the location for the needle biopsy. Coordinates in reference to the closest fiducial defined the location for the muscle biopsy. […] Approximately 15-40 mg of tissue was obtained at each biopsy and frozen in liquid nitrogen within 60 seconds after excision and stored at −80° C. (SciSafe Inc. Billerica, MA, USA) until analysis.\nas §1"}, "[4]": {"system": "subjects with FSHD", "assay": "WB-MSK MRI composite scores (MFI, MFF, LMV)", "type": "in vivo, human", "description": "The images were acquired in five different sections. The rotator cuff was imaged using a neck coil, torso and legs using anterior surface coils and integrated table coils, and the upper extremities using a surface and table coils, after the patient was repositioned such that the extremity was in the center of the MRI scanner. T1-weighted Dixon-images of 18 muscles bilaterally, 36 total, were acquired and water and fat images were reconstructed using the scanner built-in phase-sensitive reconstruction (Siemens: Dixon-Vibe; Philips: mDixon). Three different measures were calculated for each muscle. The muscle fat fraction (MFF) is the total fat fraction inside the muscle fascia. The muscle fat infiltration (MFI) represents the diffuse fat infiltration in the muscle tissue and is defined as the fat fraction of the muscle voxels that contain <50% fat. Therefore, MFI measures the MFF for muscle tissue that is not end-stage. The lean muscle volume (LMV) represents the total amount of functional muscle tissue and is measured by removing all fat within the muscle volume. Each muscle was categorized based on these measures and supported by prior literature as normal appearing (Category A, MFI<0.10; MFF<0.50), intermediate (Category B, MFI≥0.10; MFF<0.50), and late-stage (Category C, MFF≥0.50). Two composite scores were used to assess the treatment efficacy and correlation with relevant clinical outcome assessments. The treatment efficacy composite score includes only those muscles identified as normal appearing or at high risk for progression (Category A or B muscles) at baseline that were measurable at both observation timepoints, having no signal quality issues. The regional composite scores for correlations are composed of all muscles that were involved in the specific functional assessment of interest regardless of their categorization (FIG. 2). The scores were derived by scientists at the MRI Service Provider (AMRA Medical Inc.) in a blinded fashion, with no access to treatment assignment information. Measurements for muscles with major quality issues, (i.e., muscles with missing values), were imputed. Late-stage muscles were not included in the analysis as these contain high fat fraction which makes them challenging to quantify accurately, and likely are already not functional. A mixed-effects model for repeated measures (MMRM) was used to analyze the change from baseline in each composite MRI score (MFFtotal, LMVtotal, and MFItotal), with repeat number category, treatment group, visit, and treatment-by-visit interactions as fixed effects and baseline value of the parameter as a covariate. […]"}, "[5]": {"system": "subjects with FSHD", "assay": "Timed Up and Go (TUG)", "type": "in vivo, human", "conditions": "nonsignificant", "experimental": "TUG assessments were performed at all visits, except for Wk16. The TUG test is a simple test that is used to assess a subject's mobility and requires both static and dynamic balance. TUG is a validated instrument that measures the time that a person takes to rise from a chair, walk 3 meters, turn around, walk back to the chair, and sit down. Subjects used their regular footwear, and their customary walking aid (no walkers allowed). Patients were also timed in a modified test (FSHD TUG), where they started from a supine position, then sat up, completed the TUG, and lay down again."}, "[6]": {"system": "subjects with FSHD", "assay": "FSHD health index (FSHD-HI)", "design": "species or system human", "conditions": "in vivo", "experimental": "The FSHD health index questionnaire was administered at all visits except for Wk16. This is a FSHD-specific patient-reported measure of disease burden on activities of daily living, quality of life, and symptom prevalence and severity. It consists of a questionnaire with 116 items developed from qualitative interviews of patients followed by a national cross-sectional validation study. The measure consists of 14 subscales that measure a patient's perception of their ambulation and mobility, hand function, shoulder and arm function, emotional health, back/chest/abdomen strength, fatigue, pain, eating function, ability to do activities, communication ability, satisfaction in social situations, performance in social situations, body image and cognition. Scoring was performed centrally by the developer."}, "[7]": {"system": "subjects with FSHD", "assay": "Motor Function Measure Domain 1 (MFM)", "design": "species or system human", "conditions": "in vivo", "experimental": "MFM domain 1 assessments were performed at all visits, except for those on Wk4 and Wk16. The MFM scale assesses the severity of motor deficit. Domain 1 of the MFM provides an assessment of functional impairment for standing and transfers."}}, "data": [{"smiles": "Cc1c(F)cc(C(=O)NC2CC2)cc1-c1ccc(C(=O)NCC(C)(C)C)cn1", "note": "[losmapimod, 6-(5-cyclopropylcarbamoyl-3-fluoro-2-methyl-phenyl)-N-(2,2-dimethylpropyl-)-nicotinamide]", "values": [{"measurement": "Plasma concentrations of losmapimod pre-dose", "setting": "[1]; pre-dose", "result": "25.2 to 34.4", "unit": "ng/mL"}, {"measurement": "Cmax at 4 h", "setting": "[1]; human, plasma, po, 4 h post-dose, read-out: Plasma concentrations of losmapimod 4 h post-dose (approximate Cmax)", "result": "66.4 to 91.8", "unit": "ng/mL"}, {"measurement": "Annualized RWS increase from baseline, Q1 and Q3 (largest increases)", "setting": "[2]", "result": "7-17%"}, {"measurement": "concentration at 16 weeks", "setting": "[3]; Wk16 biopsy, read-out: Concentrations in muscles at Wk16", "result": "61 ± 7.7", "unit": "ng/g"}, {"measurement": "concentration at 36 weeks", "setting": "[3]; Wk36 biopsy, read-out: Concentrations in muscles at Wk36", "result": "91.1 ± 10.7", "unit": "ng/g"}, {"measurement": "MFI or MFF in normal appearing muscles at baseline (A muscles), post-hoc", "setting": "[4]; A muscles, compared to placebo", "result": "little or no accumulation of fat"}, {"measurement": "LMV vs placebo", "setting": "[4]; B muscles", "result": "no difference"}, {"measurement": "MFF fat replacement vs placebo", "setting": "[4]; B muscles", "result": "nonsignificant reduction"}, {"measurement": "MFI efficacy composite vs placebo", "setting": "[4]; muscles at high risk of progression (B muscles), p=0.01", "result": "significantly less fat infiltration"}, {"measurement": "Progression in TUG time", "setting": "[5]", "result": 0.16, "unit": "s"}, {"measurement": "TUG time difference vs placebo", "setting": "[5]", "result": 0.58, "unit": "s"}, {"measurement": "FSHD-HI vs placebo", "setting": "[6]", "result": "no difference"}, {"measurement": "MFM total score vs placebo", "setting": "[7]", "result": "no difference"}]}]}
